Results as given in patent US20200061076A1, “METHODS OF TREATING LEUKODYSTROPHIES” (Ramot at Tel-Aviv University Ltd., priority 2017, published 2020).

What was measured:
Mut MEFs [1] = assay: mtDNA quantification (qPCR of mitochondrial 12S rRNA and nuclear 18S rRNA genes), MEFs; type: cell-based, mouse; details: 6 hours incubation (FIG. 2)
Experimental: DNA extracted from WT and Mut MEFs that were treated or not for 6 hours with 0.1 μM, 1 μM or 10 μM of p8G5 (blue), Pre084 (known SIG-1R agonist, purple), pridopidine (known SIG-1R agonists, green) or NE-100 (known SIG-1R antagonist, yellow) was subjected to qPCR analysis of mitochondrial 12S rRNA and nuclear 18S rRNA genes.

Mut MEFs [2] = assay: TMRE staining, flow cytometry; type: cell-based, mouse; details: 6 hours (FIGS. 5A-B)
Experimental: Mut MEFs were treated or untreated with the indicated concentrations of the indicated Sig-1R binders for 6 hours, stained by TMRE for 30 minutes and analyzed by flow cytometry. Shown are flow cytometry histograms and bar graphs representing % mean TMRE fluorescence intensity relative to non-treated WT cells of a representative experiment.
MEFs were seeded at a density of 4×10^4 cells per well in a 24-wells plate. 24 hours post-plating the cells were incubated with the tested compounds for additional 6 hours followed by staining with 200 nM Tetra-Methyl-Rhodamine-Ethyl esterperchlorate (TMRE) (Abcam) for 30 minutes at 37° C. Cells were removed by trypsinyzation, washed and resuspended in PBS. 5-10×10^3 cells were analyzed by Stratedigm S1000EXi cell sorter and FlowJo software (FLOWJO, LLC, Ashland, Oreg., USA).

Mut MEFs [3] = assay: Oxygen consumption (Seahorse XF Cell Mito Stress Test), MEFs; type: cell-based, mouse; details: for maximal respiration rate per mitochondrial content: 1 μM, 6 hours (FIG. 8C); for basal and ATP-linked respiration rate per mitochondrial DNA content: 6 hours (FIGS. 8A-B)
Experimental: Mut MEFs were treated or not for 6 hours with the indicated concentrations of the indicated Sig-1R binders. Oxygen consumption was measured in a XF96 Extracellular Flux Analyzer using the Seahorse XF Cell Mito Stress Test Kit. The Basal respiration (FIG. 7A) and ATP-linked respiration (FIG. 7B) data were normalized to biomass as determined by Crystal Violet staining.
Mut MEFs were treated or not for 6 hours with the indicated concentrations of the indicated Sig-1R binders. Oxygen consumption was measured in a XF96 Extracellular Flux Analyzer using the Seahorse XF Cell Mito Stress Test Kit. The Basal respiration (FIG. 8A), ATP-linked respiration (FIG. 8B) and maximal respiration (FIG. 8C) data was normalized to mtDNA content as detailed in FIG. 2.
(§1) The data were normalized to cell number, obtained by Crystal Violet staining, or to mtDNA content.

Mut primary astrocytes [4] = assay: Oxygen consumption (OCR), primary astrocytes; type: cell-based, mouse; details: 1 or 10 μm, 6 hours, normalized to cell number (FIGS. 17B-C)
Experimental: (§2) Shown is average relative quantity (RQ) of 2-6 independent experiments normalized to their untreated controls ±SEM. […] Values of ATP-linked respiration (FIG. 17B) and maximal respiration (FIG. 17C) were analyzed and normalized to cell number.
as §1

Mut primary astrocytes [5] = assay: mtDNA quantification, primary astrocytes; type: cell-based, mouse; details: 1 or 10 μm, 6 hours (FIG. 17A)
Experimental: as §2

Mut astrocytes [6] = assay: Survival under Tunicamycin-induced ER stress, Crystal Violet, astrocytes; type: cell-based, mouse; details: 30 μM, 50 ng/ml Tunicamycin last 22 hours (FIG. 19)
Experimental: WT and Mut astrocytes were treated or not for 24 hours with 20, 30 or 50 μM of the indicated Sig-1R binders in the presence of 50 ng/ml Tunicamycin (Tun) during the last 22 hours. Following, the cells were washed, fixated and stained with Crystal Violet (CV) followed by measurement of absorbance at 570 nm. Shown is % of CV staining relative to cells not treated with tunicamycin nor Sig-1R binder ±SEM of 3 independent experiments, *p<0.05.
(§3) Cells were seeded on 96-wells plate at a density of 5000 cells per well. Astrocytes were seeded following coating with 0.001% PDL.

Mut MEFs [7] = assay: Cell survival assay, Crystal violet staining, Mut MEFs; type: cell-based, mouse; details: for Survival (%) ± SEM Mut MEFs: 24 hours, untreated cells set to 100%
Experimental: as §3

WT astrocytes = assay: Cell survival assay, Crystal violet staining, WT astrocytes; type: cell-based, mouse; details: 24 hours, untreated cells set to 100%
Experimental: as §3

Mut astrocytes [8] = assay: Cell survival assay, Crystal violet staining, Mut astrocytes; type: cell-based, mouse; details: 24 hours, untreated cells set to 100%
Experimental: as §3

Mut MEFs [9] = assay: JC1 staining of intact and damaged mitochondria (mitochondrial membrane potential); type: cell-based, mouse
Experimental: Mut MEFs were treated or not for 6 hours with the indicated concentrations of p8G5 (blue), pre084 (purple), or NE-100 (yellow), washed and stained with Hoechst and JC1 for 30 minutes followed by image acquisition using In-Cell-Analyzer-2000. Shown is the % of red/green JC1 integrated intensity per cell relative to that in untreated WT cells of 2-4 independent experiments.
Following, the cells were washed, stained with Hoechst and JC-1 fluorescent dyes for 30 minutes, and subjected to image acquisition using In-Cell-Analyzer-2000. Shown is cellular content of damaged mitochondria (JC1 green channel, red bars), intact mitochondria (JC1 red channel, green bars) and damaged to intact mitochondria ratio (blue bars). Values of control (vehicle treated) cells was set to 100%.
Mut MEFs were treated with the indicated compounds at 10 μM for 24 hours followed by staining with fluorogenic dyes and image-based single-cell analysis. Shown is average effect on ROS level from at least 3-independent experiments ±SEM. […] Mut MEFs were incubated or not for 24 hours with 10 μM of the indicated compound, washed and stained with Crystal Violet. […] Mut MEFs were incubated or not for 24 hours with 10 μM of the indicated compound, washed and stained with JC1 and Hoechst followed by image-based single-cell analysis. Values of untreated cells were set as 100%. Shown is average of at least 3 independent experiments for each parameter compared to its matching control ±SEM. * p<0.05. Putative targets are indicated.
Mut MEFs were incubated or not for 24 hours with 10 μM of the indicated compounds, washed and stained with Hoechst and JC1 followed by image-based single-cell analysis. […] Mut MEFs were incubated or not with the indicated concentrations of the indicated compounds for 2 hours followed by addition of 50 ng/ml Tunicamycin (Tun) for additional 22 hours, stained with Crystal Violet followed by measurement of absorbance at 570 nm.
MEFs were seeded on 1% gelatin-coated 96-wells plate at a density of 5000 cells per well. 24 hours post-plating the cells were incubated with the tested compounds for additional 24 hours. Several DMSO-treated cells (control) were included in each plate at different locations. Following, the cells were stained by addition of fluorogenic dyes for further 30 minutes incubation at 37° C. […] CellROX was used together with Hoechst and CFSE; JC1 was used together with Hoechst. Cells were washed with Hank's balanced salt solution (HBSS) which was used for images acquisition using IN Cell Analyzer 2000 (GE Healthcare, Pitsburgh, Pa., USA). IN Cell Developer Toolbox 1.9.1 software (GE Healthcare) was used for analysis which included cells segmentation using Hoechst and/or CFSE signals. For analysis of JC1 staining, integrated intensity of green and red emissions were used for detection of damaged and intact mitochondria, respectively.

Mut MEFs [10] = assay: Survival under Tunicamycin-induced ER stress, Crystal Violet, MEFs; details: 30 μM, 24 hours, Tunicamycin during the last 22 hours (FIGS. 9 and 18)
primary OPC = assay: OPC differentiation assay (IncuCyte); type: cell-based, mouse; details: 1 μM, 60 hours in differentiation medium (FIG. 13)
Experimental: Images were taken every 10 hours followed by analysis using IncuCyte ZOOM software (2016B).
5,000 cells OPCs per well were seeded in a 96 wells plate and maintained overnight in proliferation media (Emery et al. 2013). […] OPC differentiation was monitored by continuous imaging. Images taken at ten hours intervals were analyzed by IncuCyte NeuroTrack software for the following parameters: Neurite length, Neurite branch points, Cell body clusters and Cell body cluster area. Statistics—For all comparisons, Student's t-test was performed using ≥3 independent biological repeats for each group (methodological selection of sample size was not applied).

[11] = Mutant MEFs, 1 μM, 24 hours (FIG. 12)

CCCN1CCC(c2cccc(S(C)(=O)=O)c2)CC1 [pridopidine, 4-(3-(Methylsulfonyl)phenyl)-1-propylpiperidine]
mitochondrial content in Mut MEFs (Mut MEFs [1]; 1 μM-10 μM): lowered the abnormal high mitochondrial content
TMRE staining (mitochondrial membrane potential) (Mut MEFs [2]; 10 μM): increased TMRE staining to a level above that of untreated WT cells
maximal respiration rate per mitochondrial content (Mut MEFs [3]): increased the maximal respiration capacity per mitochondria to the level of untreated WT cells
basal and ATP-linked respiration rate per mitochondrial DNA content (Mut MEFs [3]): beneficial effect
ATP-linked and maximal respiration in mutant astrocytes (Mut primary astrocytes [4]): increased both ATP-linked and maximal respiration
mitochondrial content per cell in astrocytes (Mut primary astrocytes [5]): no effect on mitochondrial content per cell
survival rate of Mut astrocytes under ER-stress conditions (Mut astrocytes [6]): increased the survival rate

O=C(OCCN1CCOCC1)C1(c2ccccc2)CCCCC1 [pre084, 2-morpholin-4-ylethyl 1-phenylcyclohexane-1-carboxylate]
Survival (%) ± SEM Mut MEFs (Mut MEFs [7]; 0.1 μM): 100 ± 2.1%
Survival (%) ± SEM Mut MEFs (Mut MEFs [7]; 1 μM): 101 ± 3.5%
Survival (%) ± SEM Mut MEFs (Mut MEFs [7]; 10 μM): 99 ± 1.5%
Survival (%) ± SEM Mut MEFs (Mut MEFs [7]; 20 μM): 97 ± 2.1%
Survival (%) ± SEM Mut MEFs (Mut MEFs [7]; 30 μM): 105 ± 1.9%
Survival (%) ± SEM Mut MEFs (Mut MEFs [7]; 50 μM): 80 ± 2.8%
Survival (%) ± SEM Mut MEFs (Mut MEFs [7]; 100 μM): 57 ± 2.2%
effect on survival of Mut cells (Mut MEFs [7]; as high as 30 μM (FIG. 4, Table 3)): did not have any negative effect on the survival
Survival (%) ± SEM WT astrocytes (WT astrocytes; 1 μM): 114 ± 7.9%
Survival (%) ± SEM WT astrocytes (WT astrocytes; 10 μM): 95 ± 2.3%
Survival (%) ± SEM WT astrocytes (WT astrocytes; 30 μM): 82 ± 1.9%
Survival (%) ± SEM Mut astrocytes (Mut astrocytes [8]; 1 μM): 97 ± 0.5%
Survival (%) ± SEM Mut astrocytes (Mut astrocytes [8]; 10 μM): 93 ± 5.1%
Survival (%) ± SEM Mut astrocytes (Mut astrocytes [8]; 30 μM): 76 ± 4.9%
red/green JC1 signal (mitochondria with high to low membrane potential) (Mut MEFs [9]; Mut MEFs, 1 μM and 10 μM, 6 hours (FIG. 6)): increased the ratio between the content of mitochondria with high to low membrane potential
mitochondrial content in Mut MEFs (Mut MEFs [1]; 0.1 μM-1 μM): lowered the abnormal high mitochondrial content
TMRE staining (mitochondrial membrane potential) (Mut MEFs [2]; 1 μM): increased TMRE staining to a level above that of untreated WT cells
maximal respiration rate per mitochondrial content (Mut MEFs [3]): increased the maximal respiration capacity per mitochondria to the level of untreated WT cells
basal and ATP-linked respiration rate per mitochondrial DNA content (Mut MEFs [3]): statistically significant increase
basal respiration and ATP-linked respiration per cell (OCR) (Mut MEFs [3]; 6 hours, normalized to biomass (FIGS. 7A-B)): no effect
ATP-linked and maximal respiration in mutant astrocytes (Mut primary astrocytes [4]): increased both ATP-linked and maximal respiration
mitochondrial content per cell in astrocytes (Mut primary astrocytes [5]): no effect on mitochondrial content per cell
survival of Mut MEFs under Tunicamycin ER-stress (Mut MEFs [10]): able to rescue mutant MEFs

CC1=C2C[C@H]3[C@@H](CC=C4C[C@@H](O)CC[C@@]43C)[C@@H]2CC[C@]12O[C@@H]1C[C@H](C)CN[C@H]1[C@H]2C [Cyclopamine, reference compound]
Survival (%) ± SEM Mut MEFs (Mut MEFs [7]; 0.1 μM): 92 ± 2.5%
Survival (%) ± SEM Mut MEFs (Mut MEFs [7]; 1 μM): 95 ± 4.1%
Survival (%) ± SEM Mut MEFs (Mut MEFs [7]; 10 μM): 79 ± 1.4%
content of damaged mitochondria (JC1 green channel) (Mut MEFs [9]; [11]): decreased content of damaged mitochondria
content of intact mitochondria (JC1 red channel) (Mut MEFs [9]; [11]): increased content of intact mitochondria
neurite length, neurite branch points, cell body clusters and cell body cluster area (primary OPC): positive effect
